For series [1], the system named is human foreskin fibroblasts (HFF). Briefly: HFF cytotoxicity assessment. The series is classed as cell-based. The settings on record: for IC50: Homo sapiens, Fibroblast, uninfected HFF, no decline in viability over the concentration range. As to the method:
(§1) HFF cytotoxicity assessments and IC50 determinations using cultures of Tg-β-gal tachyzoites grown in HFF were carried out as described previously. IC50 values were calculated with the logit-log-transformation of the relative growth and subsequent regression analysis was done with the corresponding software tool contained in Microsoft Excel software package (Microsoft, Seattle, WA). For the long-term treatments, HFF grown in T25 culture flasks were infected with 5 × 10^5 TgMe49 tachyzoites, and after 4.5 h 0.5 μM DCQ, RMB054 or RMB060 were added. Infected cultures treated with the highest corresponding concentration of DMSO (0.5%) served as controls. Prolonged treatments for up to 24 days were carried out, with the addition of fresh medium containing the respective drug every 3–4 days. Cultures were inspected by light microscopy on a daily basis. On days 3, 6, 9, 13, 16, 20 and 24, the compound-containing medium was removed, and parasites were maintained without drug pressure until host cell lysis (plaque formation) was evident.

Series [2] relates to T. gondii β-gal tachyzoites. Briefly: IC50 determination with T. gondii β-gal tachyzoites grown in HFF monolayers. The series is classed as cell-based, Toxoplasma gondii. The settings on record: for Selectivity Index: HFF vs T. gondii, compound applied prior to / concomitantly with infection; for IC50: Toxoplasma gondii, Tg-β-gal in HFF, [upper, lower limit of 95% CI], read-out: IC50 T. gondii (nM) [LS. The procedure: The efficacy of DCQ in vitro was determined using T. gondii β-gal constitutively expressing β-galactosidase grown in HFF monolayers. […] The low IC50 values and the low degree of cytotoxicity against HFF host cells in vitro encouraged us to examine the efficacy of oral treatment of CD1 mice infected with T. gondii oocysts with DCQ at 10 mg/kg/day for 5 days.
Due to the negative effects of treatment with DCQ, we investigated the efficacy in vitro of the three DCQ derivatives RMB054, RMB055 and RMB060 (Figure 1) in comparison to DCQ. Different concentrations of DCQ and the derivatives in DMSO were added to HFF either concomitantly with infection of T. gondii-β-gal tachyzoites, or 3 h after infection. […] The corresponding dose-response curves are shown in Supplementary Materials Figure S1. The viability of uninfected HFF was not impaired by the compounds up to concentrations of 5 µM (DCQ and RMB054) or 10 µM (RMB055, RMB060) (Table 1).
as §1

Series [3] deals with BAG1 (bradyzoite antigen 1) expression in T. gondii Me49. Kind of series: Immunofluorescence staining for BAG1 expression in TgMe49-infected HFF. The series is classed as cell-based, Toxoplasma gondii. Particulars: treatment for 48 h. As to the method:
For immunofluorescence microscopy, 4 × 10^4 HFF were grown on glass coverslips for 24 h to form a sub-confluent monolayer and were exposed to 1.2 × 10^5 TgMe49 tachyzoites during 4 h at 37 °C and 5% CO2. The medium was replaced and supplemented with 20 nM DCQ and RMB060, or medium containing DMSO as control. Cultures infected with TgPgSp1 (low passage number) served as positive control for BAG1 (bradyzoite antigen 1) expression. Infected cells were cultured for 16 h, 24 h, and 48 h and fixed and labelled for immunofluorescence staining as described previously. A polyclonal rabbit anti-BAG1 antiserum was applied at 1:200 dilution, followed by a goat-anti-rabbit fluorescein-isothiocyanate conjugate (1:300), the monoclonal mouse anti-TgSAG1 antibody was diluted (1:100), followed by goat anti-mouse conjugated to tetramethylrhodamine-isothiocyanate at 1:300. Subsequently, samples were mounted in H-1200 Vectashield mounting medium (Vector Laboratories, Burlingame, CA, USA) containing 4,6-diamidino-2-phenylindole and were viewed on a Nikon E80i fluorescence microscope (Tokyo, Japan). Processing of images was performed using Openlab 5.5.2 (Improvision, PerkinElmer, Waltham, MA, USA) and the ImageJ software, version 1.53 m.

Setting [4] is: compound added 3 h post-infection, LI] Compound Added 3 h Post-infection.
The mark [5] stands for this setting: compound added prior to / concomitantly with infection, LI] Compound Added Prior to Infection.

The values that follow come from publication PMC8587999, “Assessment of the Activity of Decoquinate and Its Quinoline-O-Carbamate Derivatives against Toxoplasma gondii In Vitro and in Pregnant Mice Infected with T. gondii Oocysts” (Molecules, 2021).

Where two headings read alike, the source gives them in different places. A value given as a limit tells only on which side of the number the result lay.

Regarding `CCCCCCCCCCOc1cc2c(OC(=O)N3CCN(CC)C(=O)C3=O)c(C(=O)OCCOC)cnc2cc1OCC` [RMB054], the “Concentration up to which viability of uninfected HFF was not impaired” value in series [1] amounted to 5 µM. For the same compound, the 50% inhibitory concentration (IC50) – broadly, the concentration needed to halve the response being measured – was greater than 5000 nM in series [1], 11.4 nM in series [2] (setting [4]) and 11.5 nM in series [2] (setting [5]). In series [2], the “Selectivity Index” value is listed as greater than 435. Besides, the “Expression of the bradyzoite marker BAG1” value in series [3] is “not clearly detectable”.
For `CCCCCCCCCCOc1cc2c(OC(=O)N3CCN(S(C)(=O)=O)C3=O)c(C(=O)OCCOC)cnc2cc1OCC` [RMB055], in series [1], the “Concentration up to which viability of uninfected HFF was not impaired” value came out at 10 µM. The IC50 was greater than 10000 nM in series [1], 227 nM in series [2] (setting [4]) and 200 nM in series [2] (setting [5]). The “Selectivity Index” value in series [2] was greater than 50.
